Data reported in patent publication US11111218B2, “Crystalline form of 5-amino-2,3-dihydrophthalazine-1,4-dione” (METRIOPHARM AG, priority 2016, dated 2021).

Conditions: TG-DSC
Text: Upper trace: Mass loss determined by TG. Lower trace: Heat flow determined by DSC

thermal stability up to (crystalline solid): up to 320±1 °C
SMILES: Nc1cccc2c(=O)[nH][nH]c(=O)c12 [Form II, 5-amino-2,3-dihydrophthalazine-1,4-dione]
solid state transformation to other forms (until thermal degradation of the crystalline compound sets in): no solid state transformation to other forms is observed
